Test results from patent US20080085889A1, “Amidomethyl-Substituted 1-(Carboxyalkyl) Cyclopentyl-Carbonylamino-Benzazepine-N-Acetic Acid Compounds, Process and Intermediate Products for Their Preparation and Pharmaceutical Compositions Containing Them” (SOLVAY PHARMACEUTICALS GmbH, priority 2003, published 2008).
pIC50: −log10 of the molar value.

Legend:
[1] = Plasma protein binding, equilibrium dialysis, human plasma; type: in vitro ADME; details: human plasma (10% for routine testing), 37° C., pH 7.4, 10% plasma (100% for low binders), read-out: % bound (human plasma) (converted)
Description: (§1) Plasma protein binding of the test substances of Formula I was measured using a validated equilibrium dialysis method. The dialysis cells consisted of two halves separated by a semi-permeable membrane slightly tensioned in between. […] Before being used, the membranes were re-hydrated by soaking in water followed by the dialysis buffer. Plasma (10% for routine testing, and 100% for compounds found to have a low protein binding) was heated to 37° C. and adjusted to pH 7.4 before use. 5 μM test compound solutions (final dimethylsulfoxide concentration 0.5%) were prepared in isotonic phosphate buffer containing rat or human plasma. The plasma-containing solution was on one side of the membrane, and the plasma-free on the other. Incubations were performed overnight (10% plasma assay), or for 2 hours (100% plasma assay) in triplicate. The cells were mounted in a drive unit that rotated the cells and ensured a uniform equilibrium was obtained. The equilibrium was temperature controlled by the drive unit being immersed in a water bath at 37° C. At the end of the equilibration time, the cells were emptied. The solutions for each batch of compounds were combined into two groups (plasma-free and plasma-containing) then cassette analysed by LC-MS/MS using two sets of calibration standards for plasma-free (7 points) and plasma-containing solutions (6 points). The percentage of protein bound compound was calculated as follows: [formula] PC=sample concentration in protein containing side; PF=sample concentration in protein free side;

[2] = molecular target: T1, His6-tagged hSEP ectodomain (Homo sapiens, UniProt Q495T6); test: In vitro investigation of the hSEP-inhibitory action (fluorescence-quenched Big-ET-1 analogue, HPLC); type: biochemical
T1 construct: His6-tagged hSEP ectodomain; His6; purchased Innogenetics, Ghent, Belgium
T1 sequence (Q495T6 49-779 limits assumed): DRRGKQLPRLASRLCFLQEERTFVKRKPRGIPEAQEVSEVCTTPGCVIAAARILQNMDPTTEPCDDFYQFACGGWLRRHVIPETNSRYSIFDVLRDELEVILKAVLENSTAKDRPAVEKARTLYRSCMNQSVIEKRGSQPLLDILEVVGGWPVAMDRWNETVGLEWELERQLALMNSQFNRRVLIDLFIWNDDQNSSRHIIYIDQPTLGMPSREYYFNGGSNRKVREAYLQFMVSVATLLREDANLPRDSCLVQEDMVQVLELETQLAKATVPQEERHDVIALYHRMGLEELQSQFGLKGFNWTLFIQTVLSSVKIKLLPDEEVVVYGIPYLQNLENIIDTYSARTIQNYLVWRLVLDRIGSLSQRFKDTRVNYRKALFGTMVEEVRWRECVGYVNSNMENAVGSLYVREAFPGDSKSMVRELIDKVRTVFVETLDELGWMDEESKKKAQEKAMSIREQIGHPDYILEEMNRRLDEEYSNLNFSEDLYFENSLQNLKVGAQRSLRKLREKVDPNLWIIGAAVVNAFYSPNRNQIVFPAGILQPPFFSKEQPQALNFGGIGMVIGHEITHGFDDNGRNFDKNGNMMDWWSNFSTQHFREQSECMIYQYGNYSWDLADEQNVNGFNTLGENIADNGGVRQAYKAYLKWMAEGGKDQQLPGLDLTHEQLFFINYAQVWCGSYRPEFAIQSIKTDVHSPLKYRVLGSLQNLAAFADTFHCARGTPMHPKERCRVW
Procedure, shortened: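 Performed as for the NEP assay, with HPLC analysis and 10 nM phosphoramidon as the standard inhibitor. IC50 is the compound concentration blocking 50% of hSEP enzymatic activity.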

[3] = tested on: formation of ET-1 from Big-ET-1; test: In vivo inhibition of the Big-ET-1-induced blood pressure increase in anaesthetised rats, i.v. single dose; set-up: species or system Rats (Sprague-Dawley); details: 5 min before 0.5 nmol/kg Big-ET-1, negative values indicate inhibition
Procedure, shortened: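 Anaesthetised (Rompun/Ketavet) Sprague-Dawley rats got test substance i.v. via jugular vein, as a rule 10 μmol/kg, or vehicle; 5 min later 0.5 nmol/kg Big-ET-1 infused over 1 min. Carotid pressure recorded every 5 min for 30 min; value is % inhibition versus vehicle of maximum Big-ET-1-induced systolic pressure rise, negative values meaning inhibition.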

[4] = Plasma protein binding, equilibrium dialysis, rat plasma; type: in vitro ADME; details: rat plasma (10% for routine testing), 37° C., pH 7.4, 10% plasma (100% for low binders), read-out: % bound (rat plasma) (converted)
Description: as §1

[5] = Rattus norvegicus, iv, 10 μmol/kg, read-out: % substance-related inhibition of the maximum Big-ET effect on SAP vs. control

| fraction unbound at 5 μM [1] | pIC50 [2] | fraction unbound at 5 μM [4] | Molecule | change in vivo at 10 µmol/kg [3, 5] [%] | change in vivo at 0.3 µmol/kg ([3]; Rattus norvegicus, iv, 0.3 μmol/kg, read-out: % substance-related inhibition of the maximum Big-ET effect on SAP vs. control) [%] | % substance-related inhibition of the maximum Big-ET effect on SAP vs. control ([3]; 10 μmol/kg) [%] |
| --- | --- | --- | --- | --- | --- | --- |
| 0.58 | 8.11 | 0.31 | CC(C)NC(=O)CC(CC1(C(=O)N[C@H]2CCc3ccccc3N(CC(=O)O)C2=O)CCCC1)C(=O)O (stereo in doubt) [Example 3, (2″rel1″)-2-{[(3S)-1-({[1-(carboxymethyl)-2-oxo-2,3,4,5-tetrahydro-1H-1-benzazepin-3-yl]amino}-carbonyl)cyclopentyl]methyl}-4-(isopropylamino)-4-oxobutyric acid] | -94 |  |  |
| ~1 | 8.30 | 0.83 | CN(C)CCCN(C)C(=O)CC(CC1(C(=O)NC2CCc3ccccc3N(CC(=O)O)C2=O)CCCC1)C(=O)O (stereo not shown) [Example 64, 2-[(1-{[1-(carboxymethyl)-2-oxo-2,3,4,5-tetrahydro-1H-1-benzazepin-3-yl]carbamoyl}cyclopentyl)methyl]-4-{[3-(dimethylamino)propyl](methyl)amino}-4-oxobutanoic acid] | -108 |  |  |
| 0.34 | 8.70 | 0.36 | CCN(CCCCN)C(=O)CC(CC1(C(=O)NC2CCc3ccccc3N(CC(=O)O)C2=O)CCCC1)C(=O)O [Example 81, (2″rel1″)-4-[(4-aminobutyl)(ethyl)amino]-2-{[1-({[(3S)-1-(carboxymethyl)-2-oxo-2,3,4,5-tetrahydro-1H-1-benzazepin-3-yl]amino}carbonyl)cyclopentyl]methyl}-4-oxobutanoic acid] |  | -73 |  |
|  |  |  | {(3S)-3-[({1-[(2″rel1″)-2-ethoxycarbonyl)-4-(isopropylamino)-4-oxobutyl]cyclopentyl}-carbonyl)amino]-2-oxo-2,3,4,5-tetrahydro-1H-1-benzazepin-1-yl}acetic acid [Example 4] |  |  | −95 |
